Source: PubChem BioAssay (NCI)
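GI50 marks 50% less growth. TGI: total growth inhibition.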

How the values were obtained:
Assay in all cases: NCI tumour cell line growth inhibition, 384-well format
MOLT-4 leukemia = system: MOLT-4 leukemia
RXF 393 renal = system: RXF 393 renal
OVCAR-4 ovarian = system: OVCAR-4 ovarian
BT-549 breast = system: BT-549 breast
MCF7 breast = system: MCF7 breast
UO-31 renal = system: UO-31 renal
A498 renal = system: A498 renal
CAKI-1 renal = system: CAKI-1 renal
NCI-H23 lung = system: NCI-H23 lung
HOP-92 NSCLC = system: HOP-92 NSCLC
MDA-MB-468 breast = system: MDA-MB-468 breast
NCI-H522 lung = system: NCI-H522 lung
UACC-62 melanoma = system: UACC-62 melanoma
MDA-MB-435 melanoma = system: MDA-MB-435 melanoma
HCT-15 colon = system: HCT-15 colon
786-0 renal = system: 786-0 renal
A549 NSCLC = system: A549 NSCLC
NCI-H460 NSCLC = system: NCI-H460 NSCLC
OVCAR-3 ovarian = system: OVCAR-3 ovarian
TK-10 renal = system: TK-10 renal
IGROV1 ovarian = system: IGROV1 ovarian
SF-268 CNS = system: SF-268 CNS
SW-620 colon = system: SW-620 colon
OVCAR-5 ovarian = system: OVCAR-5 ovarian
SNB-19 CNS = system: SNB-19 CNS
ACHN renal = system: ACHN renal
SR leukemia = system: SR leukemia
NCI-H226 lung = system: NCI-H226 lung
K-562 leukemia = system: K-562 leukemia
SF-539 CNS = system: SF-539 CNS
HOP-62 NSCLC = system: HOP-62 NSCLC
NCI-H322M lung = system: NCI-H322M lung
SNB-75 CNS = system: SNB-75 CNS
HL-60(TB) leukemia = system: HL-60(TB) leukemia
HS 578T breast = system: HS 578T breast
MALME-3M melanoma = system: MALME-3M melanoma
SK-MEL-2 melanoma = system: SK-MEL-2 melanoma
HCT-116 colon = system: HCT-116 colon
SN12C renal = system: SN12C renal
PC-3 prostate = system: PC-3 prostate
KM12 colon = system: KM12 colon
SK-OV-3 ovarian = system: SK-OV-3 ovarian
T-47D breast = system: T-47D breast
HT29 colon = system: HT29 colon
EKVX NSCLC = system: EKVX NSCLC
OVCAR-8 ovarian = system: OVCAR-8 ovarian
SK-MEL-5 melanoma = system: SK-MEL-5 melanoma
U251 glioblastoma = system: U251 glioblastoma
SK-MEL-28 melanoma = system: SK-MEL-28 melanoma
DU-145 prostate = system: DU-145 prostate
UACC-257 melanoma = system: UACC-257 melanoma
COLO 205 colon = system: COLO 205 colon
MDA-MB-231 breast = system: MDA-MB-231 breast
M14 melanoma = system: M14 melanoma
SF-295 CNS = system: SF-295 CNS

## C[C@@H]1Cc2c([nH]c3ccccc23)[C@@H](c2c(F)cc(NC3CN(CCCF)C3)cc2F)N1CC(F)(F)CO
MOLT-4 leukemia
  GI50: 1390 nM
  TGI: 2680 nM
RXF 393 renal
  GI50: 1340 nM
  TGI: 2880 nM
OVCAR-4 ovarian
  GI50: 1320 nM
  TGI: 4.65 µM
BT-549 breast
  GI50: 1440 nM
  TGI: 2850 nM
MCF7 breast
  TGI: 1410 nM
UO-31 renal
  GI50: 1780 nM
  TGI: 3.81 µM
A498 renal
  GI50: 1450 nM
  TGI: 2820 nM
CAKI-1 renal
  GI50: 1660 nM
  TGI: 3.25 µM
NCI-H23 lung
  GI50: 5.52 µM
  TGI: 16.9 µM
HOP-92 NSCLC
  GI50: 1790 nM
  TGI: 3.68 µM
MDA-MB-468 breast
  GI50: 1330 nM
  TGI: 2750 nM
NCI-H522 lung
  GI50: 2360 nM
  TGI: 4.63 µM
UACC-62 melanoma
  GI50: 1580 nM
  TGI: 2950 nM
MDA-MB-435 melanoma
  GI50: 1730 nM
  TGI: 3.11 µM
HCT-15 colon
  GI50: 1950 nM
  TGI: 3.74 µM
786-0 renal
  GI50: 1820 nM
  TGI: 3.23 µM
A549 NSCLC
  GI50: 4.1 µM
  TGI: 14.5 µM
NCI-H460 NSCLC
  GI50: 1470 nM
  TGI: 2860 nM
OVCAR-3 ovarian
  GI50: 1880 nM
  TGI: 4.05 µM
TK-10 renal
  GI50: 1750 nM
  TGI: 3.26 µM
IGROV1 ovarian
  GI50: 1840 nM
  TGI: 4.33 µM
SF-268 CNS
  GI50: 1950 nM
  TGI: 4.11 µM
SW-620 colon
  GI50: 1710 nM
  TGI: 3.12 µM
OVCAR-5 ovarian
  GI50: 4.09 µM
  TGI: 15.4 µM
SNB-19 CNS
  GI50: 10.6 µM
  TGI: 22.4 µM
ACHN renal
  GI50: 1710 nM
  TGI: 3.16 µM
SR leukemia
  GI50: 1670 nM
  TGI: 3.03 µM
NCI-H226 lung
  GI50: 2350 nM
  TGI: 7.78 µM
K-562 leukemia
  GI50: 1590 nM
  TGI: 2950 nM
SF-539 CNS
  GI50: 1640 nM
  TGI: 3.25 µM
HOP-62 NSCLC
  GI50: 2370 nM
  TGI: 6.24 µM
NCI-H322M lung
  GI50: 2810 nM
  TGI: 6.54 µM
SNB-75 CNS
  GI50: 1430 nM
  TGI: 3.22 µM
HL-60(TB) leukemia
  GI50: 1390 nM
  TGI: 2690 nM
HS 578T breast
  GI50: 1410 nM
  TGI: 2730 nM
MALME-3M melanoma
  GI50: 1550 nM
  TGI: 2890 nM
SK-MEL-2 melanoma
  GI50: 1630 nM
  TGI: 2980 nM
HCT-116 colon
  GI50: 1780 nM
  TGI: 3.21 µM
SN12C renal
  GI50: 4.89 µM
  TGI: 16.5 µM
PC-3 prostate
  GI50: 1840 nM
  TGI: 3.88 µM
KM12 colon
  GI50: 1730 nM
  TGI: 3.16 µM
SK-OV-3 ovarian
  GI50: 1830 nM
  TGI: 3.91 µM
T-47D breast
  GI50: 1300 nM
  TGI: 2690 nM
HT29 colon
  GI50: 1710 nM
  TGI: 3.13 µM
EKVX NSCLC
  GI50: 1870 nM
  TGI: 6.39 µM
OVCAR-8 ovarian
  GI50: 2700 nM
  TGI: 8.09 µM
SK-MEL-5 melanoma
  GI50: 1490 nM
  TGI: 2820 nM
U251 glioblastoma
  GI50: 1770 nM
  TGI: 3.32 µM
SK-MEL-28 melanoma
  GI50: 1600 nM
  TGI: 2960 nM
DU-145 prostate
  GI50: 2500 nM
  TGI: 6.5 µM
UACC-257 melanoma
  GI50: 1560 nM
  TGI: 2910 nM
COLO 205 colon
  GI50: 2070 nM
  TGI: 3.56 µM
MDA-MB-231 breast
  GI50: 3.54 µM
  TGI: 12.1 µM
M14 melanoma
  GI50: 1780 nM
  TGI: 3.17 µM
SF-295 CNS
  GI50: 1970 nM
  TGI: 3.68 µM
